Experiments:
[1] = test system: MC38, a mouse colorectal cancer cell line; experiment: MC38 cancer animal model, Formula 1 with anti-PD-L1 antibody (Example 3); type: in vivo, C57BL/6 mouse; details: FIG. 7
Description: (§1) MC38 (8×10^4 cell), a mouse colorectal cancer cell line, was subcutaneously transplanted to a C57BL/6 mouse. When a size of cancer reaches 40-60 mm^3, a vehicle or 5 mg/kg of the compound of the Formula 1 was intraperitoneally injected into the mouse twice a week. Also, 1 ug/uL (200 ug/200 uL/mouse) of an anti-PD-L1 antibody was intraperitoneally injected into the mouse twice a week, in one day after administering a vehicle or the compound of the Formula 1. A size of cancer and a weight were measured twice a week.

[2] = test system: MC38, a mouse colorectal cancer cell line; experiment: MC38 cancer animal model, Formula 1 with anti-PD-1 / anti-CTLA-4 antibody (Example 2); type: in vivo, C57BL/6 mouse
Description: as §1, with “anti-PD-1 antibody, an anti-CTLA-4” for “anti-PD-L1”, “antibody or both thereof (purchased from BioXCell)” for “antibody”

[3] = test system: mouse bone marrow-derived dendritic cells (BM-DC); experiment: Identification of phenotype of dendritic cells (flow cytometry of cell surface markers); type: cell-based; details: 24 hours
Description: (§2) Mouse bone marrow-derived dendritic cells (BM-DC) were obtained from a femur of BALB/c or C57BL/6 mouse. The cells were kept with Dulbecco's modified Eagle medium (DMEM) containing 40 ng/mL of rmGM-CSF (JW Creagene, Sungnam, Korea) and 20 ng/mL of rmIL-4 (JW CreaGene), and containing 10% heat-inactivated FBS (Hyclone), 100 U/ml of penicillin, 100 μg/ml of streptomycin (Hyclone) and 50 μM of 2-mercaptoethanol (Sigma-Aldrich, Inc., St. Louis, Mo., USA).
(§3) A compound of a Formula 2 (Compound 2), which was an active metabolite of the compound of the Formula 1, was dissolved in DMSO, and diluted with a medium of the mouse bone marrow-derived dendritic cells so as to prepare active compound.
To identify a phenotype of dendritic cells, the mouse bone marrow-derived dendritic cells were treated with the compound of the Formula 2 for 24 hours, and then were dyed with an antibody (antibody to anti-mouse CD80, anti-mouse CD86 or anti-mouse MHC II) to a cell surface marker of the mouse bone marrow-derived dendritic cells as well as an isotype control antibody. Flow cytometry was performed by using FACS Canto II flow cytometer (Becton Dickinson).
(§4) A statistical significance between a control group and a treated group was verified by using student t-test.

[4] = test system: mouse bone marrow-derived dendritic cells (BM-DC); experiment: Measurement of phagocytosis of dendritic cells (FITC OVA-microsphere, flow cytometer); type: cell-based; details: 100 nM, 18 hours, then FITC OVA-microsphere 2 hours, FIG. 5
Description: as §2, §3
To identify phagocytosis of dendritic cells, the mouse bone marrow-derived dendritic cells (2×10^6/well) were treated with 100 nM of the compound of the Formula 2 for 18 hours, and then added with OVA-microsphere containing ovalbumin tagged with fluorescein isothiocyanate (FITC), so as to be cultured for 2 hours. Completely cultured cells were washed with PBS, and then the cells were collected, fixed with paraformaldehyde, and analyzed with a flow cytometer.
as §4

[5] = test system: mouse bone marrow-derived dendritic cells (BM-DC); experiment: Measurement of cytokines produced by dendritic cells (immunoassay kit); type: cell-based; details: 24 hours, cell culture medium, all groups administered, FIG. 4
Description: as §2, §3
To identify a change in secretion of cytokines, the mouse bone marrow-derived dendritic cells were treated with the compound of the Formula 2 for 24 hours, and then the cytokines were measured by using a cell culture medium. An immunoassay kit (R&D system) was used for measuring cytokines, and thus IL-1β, IL-6 and IL-12 were measured.
as §4

Structure (SMILES)	therapeutic potential in combination with the anti-PD-L1 antibody ([1]; Formula 1 5 mg/kg i.p. + anti-PD-L1 antibody 200 ug/mouse i.p., twice a week)	growth of cancer ([1]; single administration, Formula 1 5 mg/kg i.p. twice a week, antibody 200 ug/mouse i.p. twice a week)	therapeutic potential in combination with the anti-CTLA-4 antibody ([2]; Formula 1 5 mg/kg i.p. + anti-CTLA-4 antibody 200 ug/mouse i.p., twice a week, FIG. 6)	therapeutic potential in combination with the anti-PD-1 antibody ([2]; Formula 1 5 mg/kg i.p. + anti-PD-1 antibody 200 ug/mouse i.p., twice a week, FIG. 6)	experimental animals in which cancer was completely eradicated ([2]; Formula 1 5 mg/kg i.p. + anti-PD-1 antibody and anti-CTLA-4 antibody, twice a week)	anti-cancer effect in combination with the anti-PD-1 antibody and the anti-CTLA-4 antibody ([2]; Formula 1 5 mg/kg i.p. + both antibodies i.p., twice a week, FIG. 6)	growth of cancer ([2]; single administration, Formula 1 5 mg/kg i.p. twice a week, antibody 200 ug/mouse i.p. twice a week, FIG. 6)	MHC II (phenotype of mature dendritic cells) expression ([3]; 100 nM, FIG. 3)	CD80 (mature dendritic cell marker) expression ([3]; 0.01, 0.1 and 1 μM, FIG. 1)	CD86 (mature dendritic cell marker) expression ([3]; 0.01, 0.1 and 1 μM, FIG. 2)	phagocytosis of dendritic cells (fluorescence intensity) [4]	IL-1β secretion [5]	IL-6 secretion [5]	IL-12 secretion [5]
COc1cc(C(=O)c2ccc(-c3csc(NC(=O)[C@@H](N)C(C)C)n3)cc2-n2cncn2)cc(OC)c1OC [Formula 1, (S)—N-(4-(3-(1H-1,2,4-triazole-1-yl)-4-(3,4,5-trimethoxybenzoyl)phenyl)thiazole-2-yl)-2-amino-3-methylbutanamide]	very high therapeutic potential with a synergy effect	remarkably inhibited	very high therapeutic potential with a synergy effect	very high therapeutic potential with a synergy effect	two of ten	most increased	remarkably inhibited							
COc1cc(C(=O)c2ccc(-c3csc(N)n3)cc2-n2cncn2)cc(OC)c1OC [Formula 2, (4-(2-aminothiazole-4-yl)-2-(1H-1,2,4-triazole-1-yl)phenyl)(3,4,5-trimethoxyphenyl)methanone]								increased	increased	increased	increased	increased	increased	increased

— US11045452B2, “Composition for preventing or treating cancer comprising a vascular disrupting agent and immune checkpoint inhibitor” (CHONG KUN DANG PHARMACEUTICAL CORP., priority 2017, dated 2021)
